# Reference: ChEMBL document CHEMBL3885861, “Open TG-GATES”
# Species on record: Rattus norvegicus
# Assay: Open TG-GATES - Regimen: Daily Repeat
# Assay type: toxicity, organism-based, Sprague-Dawley
# Parameters: regimen Daily Repeat, gender Male, age 6 weeks
# Settings: in vivo, po, 100 mg/kg, route gavage, dose level Low; for APTT / Bas / Eos / Fbg / Hb / Ht / Lym / MCH / MCHC / MCV / Mono / Neu / PT / Plat / RBC / Ret / WBC: tissue Blood; for KIDNEY_L / KIDNEY_R / KIDNEY_TOTAL: tissue Kidney; for LIVER: tissue Liver; for A/G / ALP / ALT / AST / BUN / CRE / Ca / Cl / DBIL / GLC / IP / K / LDH / Na / PL / RALB / TBIL / TC / TG / TP / gamma-GTP: tissue Plasma
compound,measurement,setting,value
COC1=CC(=O)C[C@@H](C)[C@]12Oc1c(Cl)c(OC)cc(OC)c1C2=O [GRISEOFULVIN],TERMINAL_BW,"72 h, time 3 day",226.6 g
same,APTT,"72 h, time 3 day",19.6 s
same,Bas,"72 h, time 3 day",0%
same,Eos,"72 h, time 3 day",1%
same,Fbg,"72 h, time 3 day",220 mg/dL
same,Hb,"72 h, time 3 day",13.2 g/dL
same,Ht,"72 h, time 3 day",39.1%
same,Lym,"72 h, time 3 day",79.6%
same,MCH,"72 h, time 3 day",22.1 pg
same,MCHC,"72 h, time 3 day",33.8%
same,MCV,"72 h, time 3 day",65.4 fL
same,Mono,"72 h, time 3 day",2.4%
same,Neu,"72 h, time 3 day",16.4%
same,PT,"72 h, time 3 day",12.6 s
same,Plat,"72 h, time 3 day",116.4 x10_4/uL
same,RBC,"72 h, time 3 day",599.4 x10_4/ul
same,Ret,"72 h, time 3 day",7.5%
same,WBC,"72 h, time 3 day",97.1 x10_2/uL
same,KIDNEY_L,"72 h, time 3 day",1 g
same,KIDNEY_R,"72 h, time 3 day",1 g
same,KIDNEY_TOTAL,"72 h, time 3 day",2 g
same,LIVER,"72 h, time 3 day",11.2 g
same,A/G,"72 h, time 3 day",1.6
same,ALP,"72 h, time 3 day",947.8 IU/L
same,ALT,"72 h, time 3 day",35.8 IU/L
same,AST,"72 h, time 3 day",63 IU/L
same,BUN,"72 h, time 3 day",14.6 mg/dL
same,CRE,"72 h, time 3 day",0.4 mg/dL
same,Ca,"72 h, time 3 day",10.8 mg/dL
same,Cl,"72 h, time 3 day",103.8 meq/L
same,DBIL,"72 h, time 3 day",0.086 mg/dL
same,GLC,"72 h, time 3 day",213.6 mg/dL
same,IP,"72 h, time 3 day",7.9 mg/dL
same,K,"72 h, time 3 day",3.9 meq/L
same,LDH,"72 h, time 3 day",158.2 IU/L
same,Na,"72 h, time 3 day",140.8 meq/L
same,PL,"72 h, time 3 day",146 mg/dL
same,RALB,"72 h, time 3 day",3.4 g/dL
same,TBIL,"72 h, time 3 day",0.1 mg/dL
same,TC,"72 h, time 3 day",80.6 mg/dL
same,TG,"72 h, time 3 day",62.8 mg/dL
same,TP,"72 h, time 3 day",5.5 g/dL
same,gamma-GTP,"72 h, time 3 day",1.2 IU/L
same,TERMINAL_BW,"[…], time 7 day",262.3 g
same,TERMINAL_BW,"[…], time 14 day",308.3 g
same,TERMINAL_BW,"[…], time 28 day",393.4 g
same,APTT,"[…], time 7 day",19.8 s
same,Bas,"[…], time 7 day",0%
same,Eos,"[…], time 7 day",1%
same,Fbg,"[…], time 7 day",229.4 mg/dL
same,Hb,"[…], time 7 day",13.6 g/dL
same,Ht,"[…], time 7 day",40.4%
same,Lym,"[…], time 7 day",80.4%
same,MCH,"[…], time 7 day",21.3 pg
same,MCHC,"[…], time 7 day",33.8%
same,MCV,"[…], time 7 day",63 fL
same,Mono,"[…], time 7 day",2.2%
same,Neu,"[…], time 7 day",16%
same,PT,"[…], time 7 day",12.2 s
same,Plat,"[…], time 7 day",141.9 x10_4/uL
same,RBC,"[…], time 7 day",641.4 x10_4/ul
same,Ret,"[…], time 7 day",5.7%
same,WBC,"[…], time 7 day",131.1 x10_2/uL
same,APTT,"[…], time 14 day",20.1 s
same,Bas,"[…], time 14 day",0%
same,Eos,"[…], time 14 day",1%
same,Fbg,"[…], time 14 day",225.6 mg/dL
same,Hb,"[…], time 14 day",14.2 g/dL
same,Ht,"[…], time 14 day",42.2%
same,Lym,"[…], time 14 day",78%
same,MCH,"[…], time 14 day",20.4 pg
same,MCHC,"[…], time 14 day",33.7%
same,MCV,"[…], time 14 day",60.6 fL
same,Mono,"[…], time 14 day",3.2%
same,Neu,"[…], time 14 day",17.2%
same,PT,"[…], time 14 day",12.3 s
same,Plat,"[…], time 14 day",129.7 x10_4/uL
same,RBC,"[…], time 14 day",696.2 x10_4/ul
same,Ret,"[…], time 14 day",2.8%
same,WBC,"[…], time 14 day",131.1 x10_2/uL
same,APTT,"[…], time 28 day",21.2 s
same,Bas,"[…], time 28 day",0%
same,Eos,"[…], time 28 day",1%
same,Fbg,"[…], time 28 day",219.6 mg/dL
same,Hb,"[…], time 28 day",15 g/dL
same,Ht,"[…], time 28 day",44.1%
same,Lym,"[…], time 28 day",81.8%
same,MCH,"[…], time 28 day",19.5 pg
same,MCHC,"[…], time 28 day",34%
same,MCV,"[…], time 28 day",57.2 fL
same,Mono,"[…], time 28 day",2.2%
same,Neu,"[…], time 28 day",14.8%
same,PT,"[…], time 28 day",12.5 s
same,Plat,"[…], time 28 day",121.1 x10_4/uL
same,RBC,"[…], time 28 day",772 x10_4/ul
same,Ret,"[…], time 28 day",2.7%
same,WBC,"[…], time 28 day",138.9 x10_2/uL
same,KIDNEY_L,"[…], time 7 day",1.1 g
same,KIDNEY_R,"[…], time 7 day",1.1 g
same,KIDNEY_TOTAL,"[…], time 7 day",2.3 g
same,KIDNEY_L,"[…], time 14 day",1.2 g
same,KIDNEY_R,"[…], time 14 day",1.2 g
same,KIDNEY_TOTAL,"[…], time 14 day",2.4 g
same,KIDNEY_L,"[…], time 28 day",1.4 g
same,KIDNEY_R,"[…], time 28 day",1.4 g
same,KIDNEY_TOTAL,"[…], time 28 day",2.9 g
same,LIVER,"[…], time 7 day",12.7 g
same,LIVER,"[…], time 14 day",13.7 g
same,LIVER,"[…], time 28 day",16.7 g
same,A/G,"[…], time 7 day",1.5
same,ALP,"[…], time 7 day",865.8 IU/L
same,ALT,"[…], time 7 day",36.2 IU/L
same,AST,"[…], time 7 day",62.2 IU/L
same,BUN,"[…], time 7 day",15.4 mg/dL
same,CRE,"[…], time 7 day",0.4 mg/dL
same,Ca,"[…], time 7 day",10.7 mg/dL
same,Cl,"[…], time 7 day",103.8 meq/L
same,DBIL,"[…], time 7 day",0.08 mg/dL
same,GLC,"[…], time 7 day",206.2 mg/dL
same,IP,"[…], time 7 day",7.1 mg/dL
same,K,"[…], time 7 day",3.8 meq/L
same,LDH,"[…], time 7 day",162.6 IU/L
same,Na,"[…], time 7 day",142 meq/L
same,PL,"[…], time 7 day",135.2 mg/dL
same,RALB,"[…], time 7 day",3.4 g/dL
same,TBIL,"[…], time 7 day",0.1 mg/dL
same,TC,"[…], time 7 day",75.4 mg/dL
same,TG,"[…], time 7 day",75 mg/dL
same,TP,"[…], time 7 day",5.7 g/dL
same,gamma-GTP,"[…], time 7 day",1 IU/L
same,A/G,"[…], time 14 day",1.5
same,ALP,"[…], time 14 day",701.8 IU/L
same,ALT,"[…], time 14 day",35.2 IU/L
same,AST,"[…], time 14 day",57.4 IU/L
same,BUN,"[…], time 14 day",15.2 mg/dL
same,CRE,"[…], time 14 day",0.5 mg/dL
same,Ca,"[…], time 14 day",10.6 mg/dL
same,Cl,"[…], time 14 day",103.2 meq/L
same,DBIL,"[…], time 14 day",0.1 mg/dL
same,GLC,"[…], time 14 day",215.2 mg/dL
same,IP,"[…], time 14 day",7.4 mg/dL
same,K,"[…], time 14 day",4.1 meq/L
same,LDH,"[…], time 14 day",171.8 IU/L
same,Na,"[…], time 14 day",140.6 meq/L
same,PL,"[…], time 14 day",138.8 mg/dL
same,RALB,"[…], time 14 day",3.5 g/dL
same,TBIL,"[…], time 14 day",0.2 mg/dL
same,TC,"[…], time 14 day",72.6 mg/dL
same,TG,"[…], time 14 day",92.4 mg/dL
same,TP,"[…], time 14 day",5.8 g/dL
same,gamma-GTP,"[…], time 14 day",1 IU/L
same,A/G,"[…], time 28 day",1.3
same,ALP,"[…], time 28 day",684.6 IU/L
same,ALT,"[…], time 28 day",31 IU/L
same,AST,"[…], time 28 day",55.8 IU/L
same,BUN,"[…], time 28 day",16 mg/dL
same,CRE,"[…], time 28 day",0.5 mg/dL
same,Ca,"[…], time 28 day",10.3 mg/dL
same,Cl,"[…], time 28 day",104.2 meq/L
same,DBIL,"[…], time 28 day",0.086 mg/dL
same,GLC,"[…], time 28 day",235.8 mg/dL
same,IP,"[…], time 28 day",6.4 mg/dL
same,K,"[…], time 28 day",3.5 meq/L
same,LDH,"[…], time 28 day",162.2 IU/L
same,Na,"[…], time 28 day",141.4 meq/L
same,PL,"[…], time 28 day",120.4 mg/dL
same,RALB,"[…], time 28 day",3.4 g/dL
same,TBIL,"[…], time 28 day",0.1 mg/dL
same,TC,"[…], time 28 day",66.2 mg/dL
same,TG,"[…], time 28 day",82 mg/dL
same,TP,"[…], time 28 day",6 g/dL
same,gamma-GTP,"[…], time 28 day",0.8 IU/L
